Like-named read-outs stand apart in the source and are kept apart here.
Experiments:
[1] = Pharmacokinetic study in rats after oral administration of R. officinalis extract (UHPLC-ESI-MS/MS of plasma); type: in vivo, Sprague-Dawley (SD) rats; design: Cmax: unit: ng/mL; conditions: for Cmax / AUC(0-inf) / AUC(0-t) / Tmax / half-life: rat plasma, n = 6; for concentration at 0.5 h: plasma sample obtained at 0.5 h from a rat after oral administration of rosemary extract (Figure 2C)
Method: The validated method was successfully applied to pharmacokinetic studies of three diterpenes components after oral administration of rosemary at three different doses (0.25, 0.82, 2.45 g/kg). […] Therefore, we set low, medium and high doses in this study.
The main pharmacokinetic parameters of the analytes were calculated with DAS 2.0 (Shanghai, China) by non-compartmental analysis.
For the preparation of the extract, 100 g of dried leaves of R. officinalis were extracted under reflux with 1 L ethanol-water (80:20, v/v) for three times, 1 h for each time, and then filtrated. The combined filtrate was evaporated to dryness, and the residue was dissolved in water to get a concentration equivalent to 0.1 g/mL of the R. officinalis extract.
Male Sprague-Dawley (SD) rats (body weight 220 ± 50 g) were purchased and adapted under 65% RH, 23–27°C. […] Eighteen rats were randomly divided into low (0.24 g/kg), medium (0.82 g/kg), high (2.45 g/kg) dose groups. The SD rats were fasted for 12 h before experiment, had free access to water even during the experiment. The blood (0.25 mL) was collected from the orbital venous plexus at 0.08, 0.25, 0.50, 1, 1.5, 2, 3, 4, 6, 8, 12 and 24 h after oral administration of R. officinalis extract. The plasma was immediately acquired by centrifugation at 4 °C and stored frozen at −20 °C until analysis.
Before the experiment, the plasma samples stored in −20 °C were thawed naturally at room temperature. Using the optimized method, 50 μL of I.S. (2120 ng/mL), 100 μL of methanol and 100 μL of 1 mol/L HCl were added to 100 μL of plasma sample followed with vortex-mixed for 30 s. The mixed sample was extracted with 3 mL of ethyl acetate by being vortex-mixed for 1 min. The upper organic layer was removed and evaporated to dryness under a stream of nitrogen at 40 °C after centrifuging at 3800 rpm for 5 min. The residue was reconstituted with 100 μL of acetonitrile-water (40:60, v/v), and then vortex-mixed for 2 min and filtered by a 0.22 μm membrane. 10 μL of the subsequent filtrate were injected into the UHPLC-ESI-MS/MS system [20].
The maximum plasma concentration (Cmax) and the time of maximum plasma concentration (tmax) were observed directly from the measured data. The elimination rate constant (Ke) was calculated by linear regression of the terminal points in a semi-log plot of the plasma concentration against time. The elimination half-life (t1/2) was calculated using the formula t1/2 = 0.693/Ke. The area under plasma concentration-time curve (AUC0→t) to the last measurable plasma concentration (Ct) was estimated by using the linear trapezoidal rule. The area under the plasma concentration-time curve to time infinity (AUC0→∞) was calculated as AUC0→∞ = AUC0→t + Ct/Ke. Pharmacokinetic parameters of the analytes were calculated with DAS 2.0 (Shanghai, China) by non-compartmental analysis.

[2] = Stability of the three diterpenes in rat plasma under different storage conditions; type: in vitro ADME; conditions: n = 6; for Stability (% RE) Post-Preparative: extracted samples, 12 h at 4 °C; for Stability (% RE) Long-Term / Stability (% RE) Short-Term / Stability (% RE) Freeze-Thaw: rat plasma; for Stability (% RE) Long-Term: 2 weeks at −20 °C; for Stability (% RE) Short-Term: room temperature 4 h; for Stability (% RE) Freeze-Thaw: three freeze (−20 °C)-thaw cycles
Method: The stability of the three diterpenes was assessed under various conditions (Table 4). […] Moreover, all the investigated compounds were stable for 2 weeks when kept frozen at −20 °C. The stability including cycles of freeze-thaw stability (three freeze at −20 °C and thaw cycles), room temperature stability (storage for 4 h at ambient temperature), long-term stability (storage for 2 weeks at −20 °C), post-preparation stability (storage for 12 h after sample preparation at 4 °C) were tested at LQC, MQC, HQC levels with six replicates at each level. The results were compared with those for freshly prepared QC samples and the percentage concentration deviation was calculated. The accuracy should be within ± 15% in freshly prepared samples. All the testing QC samples of stability were determined by using the calibration curve of freshly prepared standard samples.

[3] = design: method as in PMID 19309757; conditions: rat, monomeric compound (purity ≥ 98%) instead of extract; cited from earlier work
[4] = male, Sprague-Dawley, rat, plasma, po, 0.24 g/kg, oral R. officinalis extract 0.24 g/kg (low dose), read-out: Cmax
[5] = male, Sprague-Dawley, rat, plasma, po, 0.82 g/kg, oral R. officinalis extract 0.82 g/kg (medium dose), read-out: Cmax
[6] = male, Sprague-Dawley, rat, plasma, po, 2.45 g/kg, oral R. officinalis extract 2.45 g/kg (high dose), read-out: Cmax
[7] = male, Sprague-Dawley, oral R. officinalis extract 0.24 g/kg (low dose)
[8] = male, Sprague-Dawley, oral R. officinalis extract 0.82 g/kg (medium dose)
[9] = male, Sprague-Dawley, oral R. officinalis extract 2.45 g/kg (high dose)
[10] = high QC (25,800/3488/4080 ng/mL)
[11] = low QC (21.50/2.910/3.400 ng/mL)
[12] = medium QC (1075/145.3/170.0 ng/mL)
[13] = low QC (21.50/2.910/3.400 ng/mL carnosic acid/carnosol/rosmanol)

Cmax [1, 4] | Cmax [1, 5] | Cmax [1, 6] | concentration at 0.5 h ([1]; male, Sprague-Dawley) | AUC(0-inf) [1, 7] | AUC(0-t) [1, 7] | Tmax [1, 7] | half-life [1, 7] | AUC(0-inf) [1, 8] | AUC(0-t) [1, 8] | Tmax [1, 8] | half-life [1, 8] | AUC(0-inf) [1, 9] | AUC(0-t) [1, 9] | Tmax [1, 9] | half-life [1, 9] | Stability (% RE) Post-Preparative [2, 10] | Stability (% RE) Post-Preparative [2, 11] | Stability (% RE) Post-Preparative [2, 12] | Stability (% RE) Long-Term [2, 10] | Structure (SMILES) | other results
77.2 ± 10.5 ng/mL | 188 ± 75.9 ng/mL | 633 ± 118 ng/mL | 568 ng/mL | 552 ± 130 ng·h/mL | 460 ± 54.9 ng·h/mL | 0.25 h | 8.88 ± 3.52 h | 826 ± 138 ng·h/mL | 678 ± 56.9 ng·h/mL | 0.2 ± 0.18 h | 9.75 ± 2.44 h | 7980 ± 1650 ng·h/mL | 5370 ± 927 ng·h/mL | 0.55 ± 0.27 h | 15.4 ± 3.54 h | 4.60 % RE | −0.30 % RE | −7.65 % RE | 9.17 % RE | CC(C)c1cc2c(c(O)c1O)[C@@]13CCCC(C)(C)[C@@H]1[C@H](OC3=O)[C@H]2O [Rosmanol] | Cmax ([1]; oral R. officinalis extract 2.45 g/kg (high dose)): 633.41 ± 118.52 ng/mL; Stability (% RE) Long-Term [2, 11]: 7.17 % RE; Stability (% RE) Long-Term [2, 12]: −8.56 % RE; Stability (% RE) Short-Term [2, 10]: 0.65 % RE; Stability (% RE) Short-Term [2, 11]: 5.01 % RE; Stability (% RE) Short-Term [2, 12]: −8.16 % RE; Stability (% RE) Freeze-Thaw [2, 10]: −0.07 % RE; Stability (% RE) Freeze-Thaw [2, 13]: 4.65 % RE; Stability (% RE) Freeze-Thaw [2, 12]: −7.12 % RE
1210 ± 344 ng/mL | 3960 ± 516 ng/mL | 27500 ng/mL | 27900 ng/mL | 14900 ng·h/mL | 9140 ± 1500 ng·h/mL | 0.3 ± 0.11 h | 8.02 ± 2.08 h | 40000 ng·h/mL | 28500 ng·h/mL | 0.3 ± 0.11 h | 12.8 ± 5.14 h | 181000 ng·h/mL | 146000 ng·h/mL | 0.5 ± 0.31 h | 12.8 ± 1.23 h | 14.83 % RE | 13.89 % RE | 14.10 % RE | 14.84 % RE | CC(C)c1cc2c(c(O)c1O)[C@@]1(C(=O)O)CCCC(C)(C)[C@@H]1CC2 [Carnosic acid] | Tmax [3]: 2.17 h; Stability (% RE) Long-Term [2, 11]: 13.78 % RE; Stability (% RE) Long-Term [2, 12]: 14.30 % RE; Stability (% RE) Short-Term [2, 10]: 14.84 % RE; Stability (% RE) Short-Term [2, 11]: 10.21 % RE; Stability (% RE) Short-Term [2, 12]: 14.80 % RE; Stability (% RE) Freeze-Thaw [2, 10]: 14.40 % RE; Stability (% RE) Freeze-Thaw [2, 13]: 14.04 % RE; Stability (% RE) Freeze-Thaw [2, 12]: 14.82 % RE
217 ± 53.1 ng/mL | 413 ± 42.6 ng/mL | 1480 ± 266 ng/mL | 1830 ng/mL | 1820 ± 327 ng·h/mL | 1470 ± 190 ng·h/mL | 0.4 ± 0.13 h | 12.3 ± 2.36 h | 7360 ± 2740 ng·h/mL | 3190 ± 316 ng·h/mL | 0.27 ± 0.15 h | 13.9 ± 6.95 h | 17400 ng·h/mL | 14000 ng·h/mL | 0.7 ± 0.45 h | 12.8 ± 3.15 h | 2.09 % RE | 2.32 % RE | 0.66 % RE | −0.48 % RE | CC(C)c1cc2c(c(O)c1O)[C@@]13CCCC(C)(C)[C@@H]1C[C@@H]2OC3=O [Carnosol] | Cmax ([1]; oral R. officinalis extract 0.24 g/kg (low dose)): 216.56 ± 53.09 ng/mL; Cmax ([1]; oral R. officinalis extract 0.82 g/kg (medium dose)): 413.34 ± 42.59 ng/mL; Stability (% RE) Long-Term [2, 11]: 3.10 % RE; Stability (% RE) Long-Term [2, 12]: 14.49 % RE; Stability (% RE) Short-Term [2, 10]: −0.79 % RE; Stability (% RE) Short-Term [2, 11]: 8.07 % RE; Stability (% RE) Short-Term [2, 12]: −8.67 % RE; Stability (% RE) Freeze-Thaw [2, 10]: 0.30 % RE; Stability (% RE) Freeze-Thaw [2, 13]: 5.39 % RE; Stability (% RE) Freeze-Thaw [2, 12]: 8.40 % RE
